How the values were obtained:
[1] = test system: TrkA; test: Estimated inhibition of TrkA after oral dose of 10 mg/kg in rats (FIGS. 3 and 4); settings: oral dose of 10 mg/kg in rats; relative to Compound 2 and Compound 3; calculated from plasma concentration and IC50
Protocol: FIGS. 3 and 4 illustrate the estimated inhibition of TrkA for Compound 1 after an oral dose of 10 mg/kg in rats of relative to Compound 2, and for Compound 1 relative to Compound 3, respectively. The curves in FIGS. 3 and 4 were calculated using the following equation: […]
where Imin and Imax are the minimum and maximum possible inhibition of the target, respectively, IC50 is the concentration at which the target is inhibited by 50%, C is the concentration of the inhibitor, and n is the Hill slope.

[2] = target: T1, IRAK1 (Homo sapiens, UniProt P51617); test: KinaseProfiler kinase profiling; format: biochemical; settings: 10 μM, ATP near Km
T1 construct: purchased Millipore, Inc. (KinaseProfiler service)
Protocol: (§1) Compound 1 was tested for off-target kinase activity at a concentration of 10 μM by Millipore, Inc. in their KinaseProfiler™ service against all the kinases available in their full kinase panel. Compound 1 was run in duplicate at a concentration of ATP near the Km for each individual kinase according to Millipore's specifications. Data are reported as percent of control (POC) and are the average of the two replicates.

[3] = target: T2, DAPK3 (Homo sapiens, UniProt O43293); test: KinaseProfiler kinase profiling; format: biochemical; settings: 10 μM, ATP near Km
T2 construct: purchased Millipore, Inc. (KinaseProfiler service)
Protocol: as §1

[4] = target: T3, CDK9/cyclinT1 (Homo sapiens, UniProt P50750); test: KinaseProfiler kinase profiling; format: biochemical; settings: 10 μM, ATP near Km
T3 construct: purchased Millipore, Inc. (KinaseProfiler service)
Protocol: as §1

[5] = target: T4, CDK2/cyclinA (Homo sapiens, UniProt P24941); test: KinaseProfiler kinase profiling; format: biochemical; settings: 10 μM, ATP near Km
T4 construct: purchased Millipore, Inc. (KinaseProfiler service)
Protocol: as §1

[6] = target: T5, NEK6 (Homo sapiens, UniProt Q9HC98); test: KinaseProfiler kinase profiling; format: biochemical; settings: 10 μM, ATP near Km
T5 construct: purchased Millipore, Inc. (KinaseProfiler service)
Protocol: as §1

[7] = target: T6, PKCbetaII (Homo sapiens, UniProt P05771); test: KinaseProfiler kinase profiling; format: biochemical; settings: 10 μM, ATP near Km
T6 construct: purchased Millipore, Inc. (KinaseProfiler service)
Protocol: as §1

[8] = target: T7, JNK1alpha1 (Homo sapiens, UniProt P45983); test: KinaseProfiler kinase profiling; format: biochemical; settings: 10 μM, ATP near Km
T7 construct: purchased Millipore, Inc. (KinaseProfiler service)
Protocol: as §1

[9] = target: T8, Plk2 (Homo sapiens, UniProt Q9NYY3); test: KinaseProfiler kinase profiling; format: biochemical; settings: 10 μM, ATP near Km
T8 construct: purchased Millipore, Inc. (KinaseProfiler service)
Protocol: as §1

[10] = target: T9, TrkB (Homo sapiens, UniProt Q16620); test: KinaseProfiler kinase profiling; format: biochemical; settings: 10 μM, ATP near Km
T9 construct: purchased Millipore, Inc. (KinaseProfiler service)
Protocol: as §1

[11] = target: T10, RIPK2 (Homo sapiens, UniProt O43353); test: KinaseProfiler kinase profiling; format: biochemical; settings: 10 μM, ATP near Km
T10 construct: purchased Millipore, Inc. (KinaseProfiler service)
Protocol: as §1

[12] = target: T11, IRR (Homo sapiens, UniProt P14616); test: KinaseProfiler kinase profiling; format: biochemical; settings: 10 μM, ATP near Km
T11 construct: purchased Millipore, Inc. (KinaseProfiler service)
Protocol: as §1

[13] = target: T12, mTOR/FKBP12 (Homo sapiens, UniProt P42345); test: KinaseProfiler kinase profiling; format: biochemical; settings: 10 μM, ATP near Km
T12 construct: purchased Millipore, Inc. (KinaseProfiler service)
Protocol: as §1

[14] = target: T13, Flt4 (Homo sapiens, UniProt P35916); test: KinaseProfiler kinase profiling; format: biochemical; settings: 10 μM, ATP near Km
T13 construct: purchased Millipore, Inc. (KinaseProfiler service)
Protocol: as §1

[15] = target: T14, eEF-2K (Homo sapiens, UniProt O00418); test: KinaseProfiler kinase profiling; format: biochemical; settings: 10 μM, ATP near Km
T14 construct: purchased Millipore, Inc. (KinaseProfiler service)
Protocol: as §1

[16] = target: T15, DYRK2 (Homo sapiens, UniProt Q92630); test: KinaseProfiler kinase profiling; format: biochemical; settings: 10 μM, ATP near Km
T15 construct: purchased Millipore, Inc. (KinaseProfiler service)
Protocol: as §1

[17] = target: T16, NEK2 (Homo sapiens, UniProt P51955); test: KinaseProfiler kinase profiling; format: biochemical; settings: 10 μM, ATP near Km
T16 construct: purchased Millipore, Inc. (KinaseProfiler service)
Protocol: as §1

[18] = target: T17, PDGFRbeta (Homo sapiens, UniProt P09619); test: KinaseProfiler kinase profiling; format: biochemical; settings: 10 μM, ATP near Km
T17 construct: purchased Millipore, Inc. (KinaseProfiler service)
Protocol: as §1

[19] = target: T18, Yes (Homo sapiens, UniProt P07947); test: KinaseProfiler kinase profiling; format: biochemical; settings: 10 μM, ATP near Km
T18 construct: purchased Millipore, Inc. (KinaseProfiler service)
Protocol: as §1

[20] = target: T19, PKD1 (Homo sapiens, UniProt Q15139); test: KinaseProfiler kinase profiling; format: biochemical; settings: 10 μM, ATP near Km
T19 construct: purchased Millipore, Inc. (KinaseProfiler service)
Protocol: as §1

[21] = target: T20, CLK3 (Homo sapiens, UniProt P49761); test: KinaseProfiler kinase profiling; format: biochemical; settings: 10 μM, ATP near Km
T20 construct: purchased Millipore, Inc. (KinaseProfiler service)
Protocol: as §1

[22] = target: T21, MELK (Homo sapiens, UniProt Q14680); test: KinaseProfiler kinase profiling; format: biochemical; settings: 10 μM, ATP near Km
T21 construct: purchased Millipore, Inc. (KinaseProfiler service)
Protocol: as §1

[23] = target: T22, TNK2 (Homo sapiens, UniProt Q07912); test: KinaseProfiler kinase profiling; format: biochemical; settings: 10 μM, ATP near Km
T22 construct: purchased Millipore, Inc. (KinaseProfiler service)
Protocol: as §1

[24] = target: T23, CK1gamma1 (Homo sapiens, UniProt Q9HCP0); test: KinaseProfiler kinase profiling; format: biochemical; settings: 10 μM, ATP near Km
T23 construct: purchased Millipore, Inc. (KinaseProfiler service)
Protocol: as §1

[25] = target: T24, PRKG1beta (Homo sapiens, UniProt Q13976); test: KinaseProfiler kinase profiling; format: biochemical; settings: 10 μM, ATP near Km
T24 construct: purchased Millipore, Inc. (KinaseProfiler service)
Protocol: as §1

[26] = target: T25, MSK2 (Homo sapiens, UniProt O75676); test: KinaseProfiler kinase profiling; format: biochemical; settings: 10 μM, ATP near Km
T25 construct: purchased Millipore, Inc. (KinaseProfiler service)
Protocol: as §1

[27] = target: T26, Src (Homo sapiens, UniProt P12931); test: KinaseProfiler kinase profiling; format: biochemical; settings: 10 μM, ATP near Km
T26 construct: purchased Millipore, Inc. (KinaseProfiler service)
Protocol: as §1

[28] = target: T27, TAO2 (Homo sapiens, UniProt Q9UL54); test: KinaseProfiler kinase profiling; format: biochemical; settings: 10 μM, ATP near Km
T27 construct: purchased Millipore, Inc. (KinaseProfiler service)
Protocol: as §1

[29] = target: T28, CAMK2d (Homo sapiens, UniProt Q13557); test: KinaseProfiler kinase profiling; format: biochemical; settings: 10 μM, ATP near Km
T28 construct: purchased Millipore, Inc. (KinaseProfiler service)
Protocol: as §1

[30] = target: T29, Fgr (Homo sapiens, UniProt P09769); test: KinaseProfiler kinase profiling; format: biochemical; settings: 10 μM, ATP near Km
T29 construct: purchased Millipore, Inc. (KinaseProfiler service)
Protocol: as §1

[31] = target: T30, MARK1 (Homo sapiens, UniProt Q9P0L2); test: KinaseProfiler kinase profiling; format: biochemical; settings: 10 μM, ATP near Km
T30 construct: purchased Millipore, Inc. (KinaseProfiler service)
Protocol: as §1

[32] = target: T31, PASK (Homo sapiens, UniProt Q96RG2); test: KinaseProfiler kinase profiling; format: biochemical; settings: 10 μM, ATP near Km
T31 construct: purchased Millipore, Inc. (KinaseProfiler service)
Protocol: as §1

[33] = target: T32, SGK2 (Homo sapiens, UniProt Q9HBY8); test: KinaseProfiler kinase profiling; format: biochemical; settings: 10 μM, ATP near Km
T32 construct: purchased Millipore, Inc. (KinaseProfiler service)
Protocol: as §1

[34] = target: T33, Fes (Homo sapiens, UniProt P07332); test: KinaseProfiler kinase profiling; format: biochemical; settings: 10 μM, ATP near Km
T33 construct: purchased Millipore, Inc. (KinaseProfiler service)
Protocol: as §1

[35] = target: T34, PKCalpha (Homo sapiens, UniProt P17252); test: KinaseProfiler kinase profiling; format: biochemical; settings: 10 μM, ATP near Km
T34 construct: purchased Millipore, Inc. (KinaseProfiler service)
Protocol: as §1

[36] = target: T35, GRK7 (Homo sapiens, UniProt Q8WTQ7); test: KinaseProfiler kinase profiling; format: biochemical; settings: 10 μM, ATP near Km
T35 construct: purchased Millipore, Inc. (KinaseProfiler service)
Protocol: as §1

[37] = target: T36, Abl2 (Homo sapiens, UniProt P42684); test: KinaseProfiler kinase profiling; format: biochemical; settings: 10 μM, ATP near Km
T36 construct: purchased Millipore, Inc. (KinaseProfiler service)
Protocol: as §1

[38] = test system: off-target kinases; test: KinaseProfiler off-target kinase profiling, full kinase panel (Example H); format: biochemical; settings: 10 μM, ATP near the Km
Protocol: as §1

T22 sequence (Q07912 whole entry): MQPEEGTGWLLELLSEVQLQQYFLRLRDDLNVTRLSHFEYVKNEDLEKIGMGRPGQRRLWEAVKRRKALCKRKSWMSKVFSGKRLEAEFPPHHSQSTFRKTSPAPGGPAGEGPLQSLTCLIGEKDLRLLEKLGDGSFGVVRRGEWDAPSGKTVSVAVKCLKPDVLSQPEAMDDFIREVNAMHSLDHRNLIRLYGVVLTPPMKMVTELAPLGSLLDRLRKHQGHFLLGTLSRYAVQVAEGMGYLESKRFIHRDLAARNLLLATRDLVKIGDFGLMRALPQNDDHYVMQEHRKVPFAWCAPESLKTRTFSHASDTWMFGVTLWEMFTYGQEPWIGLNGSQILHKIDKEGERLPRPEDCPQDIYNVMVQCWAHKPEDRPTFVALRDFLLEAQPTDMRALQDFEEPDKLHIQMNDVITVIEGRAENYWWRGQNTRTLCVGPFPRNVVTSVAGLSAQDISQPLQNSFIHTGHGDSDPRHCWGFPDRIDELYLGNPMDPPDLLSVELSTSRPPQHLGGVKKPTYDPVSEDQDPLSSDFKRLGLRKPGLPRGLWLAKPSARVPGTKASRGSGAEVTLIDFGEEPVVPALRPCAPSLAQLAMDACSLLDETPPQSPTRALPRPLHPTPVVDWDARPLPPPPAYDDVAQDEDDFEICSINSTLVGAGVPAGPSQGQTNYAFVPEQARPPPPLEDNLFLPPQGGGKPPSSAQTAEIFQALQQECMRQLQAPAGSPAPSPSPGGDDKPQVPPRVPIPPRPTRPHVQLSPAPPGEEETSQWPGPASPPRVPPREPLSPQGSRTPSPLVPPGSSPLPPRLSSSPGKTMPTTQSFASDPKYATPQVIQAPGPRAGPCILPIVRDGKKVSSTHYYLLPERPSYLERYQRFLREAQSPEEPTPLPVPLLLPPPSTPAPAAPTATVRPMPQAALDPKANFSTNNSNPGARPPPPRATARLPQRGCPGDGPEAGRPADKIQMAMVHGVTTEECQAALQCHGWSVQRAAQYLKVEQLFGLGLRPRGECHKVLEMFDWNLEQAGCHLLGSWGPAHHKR
T30 sequence (Q9P0L2 whole entry): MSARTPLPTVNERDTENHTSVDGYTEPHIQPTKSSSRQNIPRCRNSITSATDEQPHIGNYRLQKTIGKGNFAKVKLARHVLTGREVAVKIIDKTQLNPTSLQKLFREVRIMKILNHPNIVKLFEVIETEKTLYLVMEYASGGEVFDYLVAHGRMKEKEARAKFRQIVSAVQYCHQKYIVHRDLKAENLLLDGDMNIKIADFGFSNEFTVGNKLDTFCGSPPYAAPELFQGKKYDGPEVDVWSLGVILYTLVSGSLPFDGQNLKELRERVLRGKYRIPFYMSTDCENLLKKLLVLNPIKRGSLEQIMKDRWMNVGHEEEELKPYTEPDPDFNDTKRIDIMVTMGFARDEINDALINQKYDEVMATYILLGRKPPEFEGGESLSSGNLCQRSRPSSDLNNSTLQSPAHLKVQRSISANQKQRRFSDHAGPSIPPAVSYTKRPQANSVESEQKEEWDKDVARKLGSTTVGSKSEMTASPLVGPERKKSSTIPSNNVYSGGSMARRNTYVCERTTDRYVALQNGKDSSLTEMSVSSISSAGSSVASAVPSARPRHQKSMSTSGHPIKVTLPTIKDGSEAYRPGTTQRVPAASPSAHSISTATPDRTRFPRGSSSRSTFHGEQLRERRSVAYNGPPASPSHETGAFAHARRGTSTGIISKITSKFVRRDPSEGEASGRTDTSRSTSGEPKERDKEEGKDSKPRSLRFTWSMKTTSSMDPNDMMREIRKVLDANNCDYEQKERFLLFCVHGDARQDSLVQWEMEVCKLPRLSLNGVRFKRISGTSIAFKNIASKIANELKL
T7 sequence (P45983 1-384 isoform P45983-2): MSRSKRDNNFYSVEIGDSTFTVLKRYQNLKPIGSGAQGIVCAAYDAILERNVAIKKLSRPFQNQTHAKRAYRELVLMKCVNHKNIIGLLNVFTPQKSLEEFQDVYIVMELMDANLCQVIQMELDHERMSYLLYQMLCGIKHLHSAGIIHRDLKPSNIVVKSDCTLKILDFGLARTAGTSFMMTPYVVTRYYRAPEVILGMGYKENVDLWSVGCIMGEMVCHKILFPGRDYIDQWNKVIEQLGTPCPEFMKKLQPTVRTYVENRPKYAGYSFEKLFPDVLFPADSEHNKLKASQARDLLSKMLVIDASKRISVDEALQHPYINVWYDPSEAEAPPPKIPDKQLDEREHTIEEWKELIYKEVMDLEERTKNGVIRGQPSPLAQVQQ
T35 sequence (Q8WTQ7 whole entry): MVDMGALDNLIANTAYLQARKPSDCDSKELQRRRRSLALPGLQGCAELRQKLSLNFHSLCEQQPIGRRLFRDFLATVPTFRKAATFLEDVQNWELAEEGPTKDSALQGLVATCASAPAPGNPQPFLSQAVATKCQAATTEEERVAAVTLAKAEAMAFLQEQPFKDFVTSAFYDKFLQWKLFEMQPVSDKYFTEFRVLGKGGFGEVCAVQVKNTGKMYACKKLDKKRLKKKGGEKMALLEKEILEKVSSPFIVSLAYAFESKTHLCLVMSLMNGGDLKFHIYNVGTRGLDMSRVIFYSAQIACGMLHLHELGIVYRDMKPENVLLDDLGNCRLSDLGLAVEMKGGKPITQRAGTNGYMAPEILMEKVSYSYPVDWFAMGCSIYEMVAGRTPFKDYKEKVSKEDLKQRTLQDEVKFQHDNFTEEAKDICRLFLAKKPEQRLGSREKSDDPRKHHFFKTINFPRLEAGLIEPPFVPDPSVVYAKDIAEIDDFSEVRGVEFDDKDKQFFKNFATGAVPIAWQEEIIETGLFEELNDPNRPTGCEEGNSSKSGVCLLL
T21 sequence (Q14680 whole entry): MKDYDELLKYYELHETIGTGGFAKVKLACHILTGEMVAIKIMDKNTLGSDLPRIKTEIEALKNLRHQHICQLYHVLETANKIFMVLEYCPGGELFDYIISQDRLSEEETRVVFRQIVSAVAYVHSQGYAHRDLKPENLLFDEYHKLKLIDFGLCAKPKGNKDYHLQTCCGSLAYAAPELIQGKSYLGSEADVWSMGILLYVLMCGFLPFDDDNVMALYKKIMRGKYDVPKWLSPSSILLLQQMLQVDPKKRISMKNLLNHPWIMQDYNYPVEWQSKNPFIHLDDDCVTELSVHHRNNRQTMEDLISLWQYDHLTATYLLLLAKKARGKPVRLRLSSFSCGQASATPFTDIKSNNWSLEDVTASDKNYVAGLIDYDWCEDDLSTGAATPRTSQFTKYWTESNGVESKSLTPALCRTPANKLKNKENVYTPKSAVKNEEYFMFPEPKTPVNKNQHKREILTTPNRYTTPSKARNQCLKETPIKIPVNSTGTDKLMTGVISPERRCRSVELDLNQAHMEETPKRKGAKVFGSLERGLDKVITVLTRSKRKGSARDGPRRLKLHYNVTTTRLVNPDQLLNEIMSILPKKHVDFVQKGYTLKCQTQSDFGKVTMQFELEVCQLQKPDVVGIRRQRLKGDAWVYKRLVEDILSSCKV
T16 sequence (P51955 whole entry): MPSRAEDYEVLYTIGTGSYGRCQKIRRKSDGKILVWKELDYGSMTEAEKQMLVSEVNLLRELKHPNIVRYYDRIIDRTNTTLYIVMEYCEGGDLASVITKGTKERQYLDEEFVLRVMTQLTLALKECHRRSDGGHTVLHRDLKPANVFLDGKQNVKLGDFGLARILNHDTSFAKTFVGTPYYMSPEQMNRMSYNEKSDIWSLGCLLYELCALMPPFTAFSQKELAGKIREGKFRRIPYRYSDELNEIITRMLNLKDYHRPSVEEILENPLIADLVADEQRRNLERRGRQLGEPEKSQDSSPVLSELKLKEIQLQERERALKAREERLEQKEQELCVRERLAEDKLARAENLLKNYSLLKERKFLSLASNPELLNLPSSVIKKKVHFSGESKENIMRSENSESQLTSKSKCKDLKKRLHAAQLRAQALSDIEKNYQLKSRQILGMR
T36 sequence (P42684 whole entry): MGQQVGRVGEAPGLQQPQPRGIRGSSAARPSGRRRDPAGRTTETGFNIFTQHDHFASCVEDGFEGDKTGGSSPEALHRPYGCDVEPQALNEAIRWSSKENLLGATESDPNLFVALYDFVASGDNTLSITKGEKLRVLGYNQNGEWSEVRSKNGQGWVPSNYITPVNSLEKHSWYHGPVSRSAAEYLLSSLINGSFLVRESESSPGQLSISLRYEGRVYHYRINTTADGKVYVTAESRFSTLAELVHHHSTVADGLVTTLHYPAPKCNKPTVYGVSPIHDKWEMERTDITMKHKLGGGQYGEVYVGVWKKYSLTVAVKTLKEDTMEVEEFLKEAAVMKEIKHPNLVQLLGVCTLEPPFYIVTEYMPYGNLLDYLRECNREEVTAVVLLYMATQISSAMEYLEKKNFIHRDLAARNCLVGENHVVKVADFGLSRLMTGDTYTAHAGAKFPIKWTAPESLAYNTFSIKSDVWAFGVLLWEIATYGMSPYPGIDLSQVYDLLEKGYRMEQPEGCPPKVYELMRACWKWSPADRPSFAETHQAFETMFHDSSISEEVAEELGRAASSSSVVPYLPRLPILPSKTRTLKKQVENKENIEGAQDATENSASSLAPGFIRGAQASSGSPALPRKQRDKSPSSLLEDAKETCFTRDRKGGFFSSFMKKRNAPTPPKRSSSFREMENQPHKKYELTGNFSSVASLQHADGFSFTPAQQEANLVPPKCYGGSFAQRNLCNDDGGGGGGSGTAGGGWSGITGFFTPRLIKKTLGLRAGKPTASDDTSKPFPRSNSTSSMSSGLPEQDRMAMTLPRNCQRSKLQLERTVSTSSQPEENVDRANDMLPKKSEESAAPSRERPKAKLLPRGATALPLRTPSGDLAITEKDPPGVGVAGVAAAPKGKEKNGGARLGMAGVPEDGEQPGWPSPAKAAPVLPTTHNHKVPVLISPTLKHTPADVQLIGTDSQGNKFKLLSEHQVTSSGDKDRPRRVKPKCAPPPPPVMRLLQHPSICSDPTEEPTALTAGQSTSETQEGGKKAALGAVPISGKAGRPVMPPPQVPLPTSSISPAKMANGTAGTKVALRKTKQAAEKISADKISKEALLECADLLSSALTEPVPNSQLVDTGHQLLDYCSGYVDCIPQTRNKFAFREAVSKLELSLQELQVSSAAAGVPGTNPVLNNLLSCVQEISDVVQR

- Avg POC [2]: 103 POC
- Avg POC [3]: 105.5 POC
- Avg POC [4]: 112 POC
- Avg POC [5]: 94.5 POC
- Avg POC [6]: 96 POC
- Avg POC [7]: 99.5 POC
- Avg POC [8]: 95 POC
- Avg POC [9]: 101 POC
- Avg POC [10]: 1.5 POC
- Avg POC [11]: 90.5 POC
- Avg POC [12]: 104.5 POC
- Avg POC [13]: 105.5 POC
- Avg POC [14]: 98.5 POC
- Avg POC [15]: 112.5 POC
- Avg POC [16]: 102 POC
- Avg POC [17]: 95 POC
- Avg POC [18]: 96 POC
- Avg POC [19]: 98.5 POC
- Avg POC [20]: 94.5 POC
- Avg POC [21]: 94.5 POC
- Avg POC [22]: 105.5 POC
- Avg POC [23]: 93.5 POC
- Avg POC [24]: 78.5 POC
- Avg POC [25]: 95.5 POC
- Avg POC [26]: 116.5 POC
- Avg POC [27]: 120 POC
- Avg POC [28]: 100 POC
- Avg POC [29]: 97.5 POC
- Avg POC [30]: 106 POC
- Avg POC [31]: 100 POC
- Avg POC [32]: 137.5 POC
- Avg POC [33]: 112 POC
- Avg POC [34]: 102.5 POC
- Avg POC [35]: 98.5 POC
- Avg POC [36]: 101 POC
- Avg POC [37]: 110.5 POC
- activity against off-target kinases [38]: largely inactive
SMILES: COCCN1C[C@@H](NC(=O)Nc2c(C)c(-c3cnc(C)nc3)nn2-c2ccccc2)[C@H](c2cccc(F)c2)C1 [Compound 1, 1-((3S,4R)-4-(3-fluorophenyl)-1-(2-methoxyethyl)pyrrolidin-3-yl)-3-(4-methyl-3-(2-methylpyrimidin-5-yl)-1-phenyl-1H-pyrazol-5-yl)urea]
- estimated inhibition of TrkA [1]: higher

Source: patent US10835533B2, “1 -((3S,4R)-4-(3-fluorophenyl)-1-(2-methoxyethyl)pyrrolidin-3-yl)-3-(4-methyl-3-(2-methylpyrimidin-5-yl)-1-phenyl-1H-pyrazol-5-yl)urea as a TrkA kinase inhibitor” (Array BioPharma Inc., priority 2014, dated 2020)
